Laboratory results taken from patent US6303621A, “Method for treating cancers using a diiodo thyronine analogue having no significant hormonal activity and a vinca alkaloid and compositions comprising the same” (priority 1999, dated 2001).
Entries after “also recorded” stand apart in the source; their conditions may differ.

Assays:
tubulin α+β = assay: Inhibition of tubulin polymerization / assembly of microtubules; assay type: biochemical; details: FIG. 4b
Protocol: The optical tests were performed as reported by Buki et al., International Journal of Oncology 10:911-913 (1997).

DIME-tolerant clones [1] = assay: DIME uptake by DIME-tolerant clones; details: DIME-tolerant clones grown in 1.5 μM DIME
Protocol: (§1) DIME-tolerant clones DR6and DR 7 were isolated by incubation of cells in a mediim containing 1.5 μM DIME for 11 days. At that time surviving colonies were picked with the use of cloning rings and plated for growth in fresh mediim still containing 1.5 μM DIME. After two weeks of growth in the presence of drug the cells were aliquoted and frozen. For each experiment a vial of frozen cells was thawed, the cells were plated in the absence of drug, and incubated for 2-3 days in drug-free mediim.

caspase 3 = assay: Caspase 3 assay in drug-treated cells; assay type: cell-based, human; details: 0.75 μM DIME or 2 nM vincristine alone, 3 days
Protocol: g. Caspase 3 assay. MDA 231 cells were grown for 3 days in the absence of drugs (control) or in the presence of 0.75 μM DIME, or in the presence of 2 nM vincristine, or in the presence of both drugs. After harvesting and washing the cells with PBS, they were lysed in a lysis buffer (10 mM HEPES, 5 mM DTT, 2 mM EDTA, 1 mM PMSF, 0.1% CHAPS, 20 μg/ml each of aprotinin, leupeptin, pepstatin, pH 7.4), and were frozen and thawed 3 times. […] Each cell extract was incubated at room temperature with and without preincubation with the caspase inactivator DEVD-CMK. The difference of fluorescence was plotted against time. The fluorescence was calibrated with the fluorophore AFC.

nontumorigenic cells = assay: DIME uptake / permeation in nontumor cells; assay type: cell-based; details: versus malignant counterparts
human cancer cells = assay: Cytostatic / cytocidal activity of DIME analogues on human cancer cells; assay type: cell-based
Source text: Such tests may also screen for the ability of a particular compound to inhibit malignant tumor cell growth in vitro or in vivo or abolish tumorigenicity of malignant cells.
As will be appreciated by the skilled artisan, many varieties of malignant tumor cell cultures and cell lines may be used to screen for activity, including but not limited to HL-60, HT-144, E-ras-20, DU-145, MDA-168, MCF-7, 855-2 and MDA-MB-231. Of course, other in vitro and/or in vivo assays as will be apparent to the skilled artisan to screen for anti-tumor and/or anti-cancer activity may also be employed to identify effective diiodo thyronine analogues useful in the present invention.

[2] = Toxicity, daily oral dosing in nude mice; assay type: in vivo; details: daily oral dose 1 g/kg, 12-15 days
Protocol: Ten nude mice were administered a daily oral dose of ^14 C-labeled DIME (Compound 1) (1.0 g/kg, 0.1 mL in corn oil) for a period of 12-15 days.

[3] = system: MDA-MB-231 human mammary cancer cells; assay: Colony formation (cell killing); assay type: cell-based
Protocol: c. MDA-MB-231 human mammary cancer cells were cultured and treated as reported previously by Mendeleyev et al., International Journal of Oncology 10:689-695 (1997) and Zhen et al., International Journal of Oncology 10:689-695 (1997). For the assay of cell growth kinetics cells, were seeded into 2cm^2 wells (24-well plates) at a density of 8×10^3 /cm^2 at the time of seeding. Vincristine (or vinblastine) and DIME (or DIPE) were added from DMSO dilutions (1-2 μl/ 500 μl culture mediim) either from separate drug solutions or for the construction of median effect plot (FIG. 1) from a pre-made mixture of both drugs (e.g. 0.75 μM DIME+2 nM vincristine) and simultaneous dilutions thereof (Chou et al. Eur. J. Biochem. 115: 207-216 (1981)). The cultures were incubated at 37° C. for 4 days and growth rates, leading to near confluency in drug-free controls, were monitored by cell counting in a haemocytometer after detachment by trypsin treatment Mendeleyev et al., International Journal of Oncology 10:689-695 (1997) and Zhen et al., International Journal of Oncology 10:689-695 (1997). Mathematical analysis of growth curves and median effects and isobolograms were carried out by published procedures (Chou et al. J. Theor. Biol. 65: 345-356 (1977), Chou et al. Eur. J. Biochem. 115: 207-216 (1981) and Chou et al. Adv. in Enzyme Regulation 22:27-55 (1984)) and error bars indicate SD=Σx^2 +L -(Σx)^2 /n where X is the numerical results with n=3-5.
e. Colony formation was quantitated as reported by. Each colony of 50 cells is the outgrowth from one cell, plated 10 days before colony counting.

tadpole metamorphosis = details: in vivo; cited from earlier work
tumor cells = assay: Tumor cell apoptosis and micronucleation; assay type: cell-based
DIME-tolerant clones [4] = system: DIME-tolerant clones
Protocol: as §1

[5] = system: biosynthetic pathways of DNA, RNA or proteins; assay: Metabolic action and biosynthetic pathways of DNA, RNA or proteins
[6] = system: non-malignant mouse pituitary adenoma; details: in vivo; cited from earlier work
MDA-MB-231 xenografts = assay: Inhibition of MDA-MB-231 xenografts in nude mice; assay type: in vivo, human mammary cancer xenograft in nude mice
Source text: The ability of human tumors to grow as xenografts in athymic mice (e.g., nude mice) provides a useful in vivo model for studying the biological response to therapies for human tumors. Since the first successful xenotransplantation of human tumors into athymic mice (Rygaard et al., 1969, Acta Pathol. Microbial. Scand. 77:758-760), many different human tumor cell lines (e.g., mammary, lung, genitourinary, gastrointestinal, head and neck, glioblastoma, bone and malignant melanomas) have been successfully transplanted and grown into nude mice. Human mammary tumor cell lines, including MCF-7, ZR75-1 and MDA-MB-231, have been established as subcutaneous grafts in nude mice (Warri et al., 1991, Intl. J. Cancer 49:616-23; Ozzello et al., 1980, Eur. J. Cancer 16:553-559; Osbourne et al., 1985, Cancer Res. 45:584-590; Siebert et al., 1983, Cancer Res. 43:2223-2239).
MDA-MB-231 (human mammary cancer) cells were obtained from American Type Culture Collection (Rockville, Md.) and maintained in the recommended growth media. Twenty nude mice were each inoculated subcutaneously with MDA-MB-231 cells (10^6 cells/[…]). To one group often mice, DIME was administered by gavage (250 mg/kg, 10 mL/kg in corn oil) once […] per day, 5 days per week, for a total of 32 days. The other (control) group of ten mice was given administered vehicle only according to the same dosing schedule. Tumors were measured twice weekly using a Vernier caliper, and the mean tumor volume was determined at each time point. Comparisons between groups were made using an unpaired, two-tailed t-test and the results were analyzed using analysis of variance.

SMILES: COC(=O)c1cc(I)c(Oc2ccc(OC)cc2)c(I)c1 [DIME, methyl 3,5-diiodo-4-(4'-methoxyphenoxy) benzoate]
- Inhibition of assembly of microtubules, DIME versus DIPE (tubulin α+β): equivalency; also recorded: Inhibitory effects
- Reduction of DIME uptake (DIME-tolerant clones [1]): 50%
- Activation of caspase 3, single drug (caspase 3): small rate of caspase 3 activity
- DIME uptake / permeability of nontumor cells (nontumorigenic cells): impermeable to DIME; also recorded: take up significantly less DIME
- Cytostatic and cytocidal activity in cellular assays (human cancer cells): highly active
- Growth of malignant cell types (human cancer cells): inhibit the growth of a variety of malignant cell types
- Ill effects [2]: remarkably nontoxic; also recorded: No ill effects were observed
- Inhibition of colony formation, DIME versus DIPE ([3]; FIG. 4a): equivalency; also recorded: Equivalent effectivity
- Reduction of colony formation in parent cell line (factor) ([3]; FIG. 8, parent (wild type) cell line): 10^3
- Metabolic or cell differentiating activity (tadpole metamorphosis) (tadpole metamorphosis): no significant metabolic or cell differentiating activity
- Tumor cell apoptosis / micronucleation (tumor cells): induce tumor cell apoptosis preceded by micronucleation
- Drug permeation in DIME-tolerant cells (DIME-tolerant clones [4]): significant decrease of drug permeation
- Inhibition of biosynthetic pathways of DNA, RNA or proteins [5]: nor does it inhibit the biosynthetic pathways of DNA, RNA or proteins
- Metabolic action [5]: no metabolic action
- Growth of non-malignant mouse pituitary tumor [6]: no inhibitory activity
- Growth of mammary cancer xenografts (MDA-MB-231) (MDA-MB-231 xenografts; 250 mg/kg by gavage once daily, 5 days a week for 32 days, nude mice): significant reduction of malignant tumor growth
- MDA-MB-231 tumor volume, Day 14 ± SEM (MDA-MB-231 xenografts; DIME 250 mg/kg by gavage, 5 days per week, 32 days, control 284.6 ± 42.0, p = 0.06, in mm³ (unit assumed)): 172.0 ± 34.3
- MDA-MB-231 tumor volume, Day 21 ± SEM (MDA-MB-231 xenografts; DIME 250 mg/kg by gavage, control 622.2 ± 58.1, p = 0.02, in mm³ (unit assumed)): 285.7 ± 62.4
- MDA-MB-231 tumor volume, Day 32 ± SEM (MDA-MB-231 xenografts; DIME 250 mg/kg by gavage, control 1176.6 ± 222.4, p = 0.01, in mm³ (unit assumed)): 543.8
- % decrease (tumor volume), Day 14 (MDA-MB-231 xenografts; DIME 250 mg/kg vs control): 40%
- % decrease (tumor volume), Day 21 (MDA-MB-231 xenografts; DIME 250 mg/kg vs control): 54%
- % decrease (tumor volume), Day 28 (MDA-MB-231 xenografts; DIME 250 mg/kg vs control): 56%
- % decrease (tumor volume), Day 32 (MDA-MB-231 xenografts; DIME 250 mg/kg vs control): 54%
